From the supplement of paper PMC12076712

Key:
Assay in all cases: pIC50, kinobeads binding competition
[1] = target: T1, TNK1 (UniProt Q13470); details: cell material: Lysate mix
T1 sequence (whole entry): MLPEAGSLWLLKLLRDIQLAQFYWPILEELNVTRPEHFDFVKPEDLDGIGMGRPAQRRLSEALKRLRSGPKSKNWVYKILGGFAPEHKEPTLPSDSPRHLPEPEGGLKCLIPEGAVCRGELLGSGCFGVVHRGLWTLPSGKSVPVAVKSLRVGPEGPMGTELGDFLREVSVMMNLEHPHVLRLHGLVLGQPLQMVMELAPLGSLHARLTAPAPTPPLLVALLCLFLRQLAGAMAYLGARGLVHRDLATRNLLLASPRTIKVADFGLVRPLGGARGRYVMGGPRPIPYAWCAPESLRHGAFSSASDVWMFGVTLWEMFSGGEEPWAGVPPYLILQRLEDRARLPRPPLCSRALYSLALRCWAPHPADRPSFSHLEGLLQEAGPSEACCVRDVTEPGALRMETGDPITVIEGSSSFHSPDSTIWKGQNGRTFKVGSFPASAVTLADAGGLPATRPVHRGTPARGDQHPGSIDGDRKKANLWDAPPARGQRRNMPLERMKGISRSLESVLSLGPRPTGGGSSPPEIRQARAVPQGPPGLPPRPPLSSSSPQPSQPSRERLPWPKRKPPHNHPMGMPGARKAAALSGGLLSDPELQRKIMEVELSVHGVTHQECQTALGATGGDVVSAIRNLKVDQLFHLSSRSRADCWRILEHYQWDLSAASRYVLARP
How it was run: (§1)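 Live Jurkat cells were treated with nine compound concentrations (top 30 μM, 1:4 steps) or DMSO for 60 min at 37 °C before lysis. Alternatively, Jurkat lysate or a 1:1:1:1 HEK293/K-562/HepG2/placenta lysate mix was incubated with nine concentrations (top 30 μM, 1:5 steps) for 60 min at 4 °C. Kinobeads-bound proteins were digested and quantified by TMT10 LC-MS/MS. pIC50 came from logistic dose-response fits (R drc package) of fold changes versus DMSO, in biological duplicates.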

[2] = target: T2, NLK (UniProt Q9UBE8)
T2 sequence (whole entry): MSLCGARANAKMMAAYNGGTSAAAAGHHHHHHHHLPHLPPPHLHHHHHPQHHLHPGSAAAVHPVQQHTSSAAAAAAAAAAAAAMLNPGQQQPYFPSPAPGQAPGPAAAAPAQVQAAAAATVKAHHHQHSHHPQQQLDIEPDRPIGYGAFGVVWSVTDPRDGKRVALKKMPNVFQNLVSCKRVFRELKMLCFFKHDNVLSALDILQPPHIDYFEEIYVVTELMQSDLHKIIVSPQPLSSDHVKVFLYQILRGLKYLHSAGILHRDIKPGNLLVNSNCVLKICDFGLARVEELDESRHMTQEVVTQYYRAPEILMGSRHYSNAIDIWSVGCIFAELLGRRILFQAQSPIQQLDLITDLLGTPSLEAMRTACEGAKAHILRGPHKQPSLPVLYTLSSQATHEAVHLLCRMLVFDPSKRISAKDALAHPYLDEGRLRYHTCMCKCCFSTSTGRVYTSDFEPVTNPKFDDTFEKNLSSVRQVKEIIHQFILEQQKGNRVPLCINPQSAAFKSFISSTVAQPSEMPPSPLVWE
How it was run: as §1

[3] = target: UniProt P21127
UniProt P21127, sequence (P21127 whole entry): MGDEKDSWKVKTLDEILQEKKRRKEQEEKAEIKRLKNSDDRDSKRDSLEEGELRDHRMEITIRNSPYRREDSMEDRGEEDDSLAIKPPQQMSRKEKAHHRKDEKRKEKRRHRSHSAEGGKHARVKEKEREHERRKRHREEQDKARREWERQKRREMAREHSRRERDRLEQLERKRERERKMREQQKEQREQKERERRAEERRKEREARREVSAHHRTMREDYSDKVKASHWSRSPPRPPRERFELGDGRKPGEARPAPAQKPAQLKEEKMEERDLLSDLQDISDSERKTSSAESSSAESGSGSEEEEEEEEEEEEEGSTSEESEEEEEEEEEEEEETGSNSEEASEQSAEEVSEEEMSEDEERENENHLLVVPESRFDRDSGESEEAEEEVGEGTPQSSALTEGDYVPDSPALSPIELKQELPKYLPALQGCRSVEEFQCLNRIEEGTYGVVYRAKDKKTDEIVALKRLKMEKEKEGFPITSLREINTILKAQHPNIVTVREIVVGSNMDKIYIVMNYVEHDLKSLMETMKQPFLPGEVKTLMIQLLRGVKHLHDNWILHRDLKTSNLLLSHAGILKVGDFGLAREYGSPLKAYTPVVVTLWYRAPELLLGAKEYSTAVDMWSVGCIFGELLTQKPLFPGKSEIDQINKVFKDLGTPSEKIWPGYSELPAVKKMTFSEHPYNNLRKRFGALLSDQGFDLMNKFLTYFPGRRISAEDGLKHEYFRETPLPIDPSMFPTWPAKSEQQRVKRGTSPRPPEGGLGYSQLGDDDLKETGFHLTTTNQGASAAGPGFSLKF
How it was run: as §1

[4] = target: UniProt Q14289
UniProt Q14289, sequence (Q14289 whole entry, looked up): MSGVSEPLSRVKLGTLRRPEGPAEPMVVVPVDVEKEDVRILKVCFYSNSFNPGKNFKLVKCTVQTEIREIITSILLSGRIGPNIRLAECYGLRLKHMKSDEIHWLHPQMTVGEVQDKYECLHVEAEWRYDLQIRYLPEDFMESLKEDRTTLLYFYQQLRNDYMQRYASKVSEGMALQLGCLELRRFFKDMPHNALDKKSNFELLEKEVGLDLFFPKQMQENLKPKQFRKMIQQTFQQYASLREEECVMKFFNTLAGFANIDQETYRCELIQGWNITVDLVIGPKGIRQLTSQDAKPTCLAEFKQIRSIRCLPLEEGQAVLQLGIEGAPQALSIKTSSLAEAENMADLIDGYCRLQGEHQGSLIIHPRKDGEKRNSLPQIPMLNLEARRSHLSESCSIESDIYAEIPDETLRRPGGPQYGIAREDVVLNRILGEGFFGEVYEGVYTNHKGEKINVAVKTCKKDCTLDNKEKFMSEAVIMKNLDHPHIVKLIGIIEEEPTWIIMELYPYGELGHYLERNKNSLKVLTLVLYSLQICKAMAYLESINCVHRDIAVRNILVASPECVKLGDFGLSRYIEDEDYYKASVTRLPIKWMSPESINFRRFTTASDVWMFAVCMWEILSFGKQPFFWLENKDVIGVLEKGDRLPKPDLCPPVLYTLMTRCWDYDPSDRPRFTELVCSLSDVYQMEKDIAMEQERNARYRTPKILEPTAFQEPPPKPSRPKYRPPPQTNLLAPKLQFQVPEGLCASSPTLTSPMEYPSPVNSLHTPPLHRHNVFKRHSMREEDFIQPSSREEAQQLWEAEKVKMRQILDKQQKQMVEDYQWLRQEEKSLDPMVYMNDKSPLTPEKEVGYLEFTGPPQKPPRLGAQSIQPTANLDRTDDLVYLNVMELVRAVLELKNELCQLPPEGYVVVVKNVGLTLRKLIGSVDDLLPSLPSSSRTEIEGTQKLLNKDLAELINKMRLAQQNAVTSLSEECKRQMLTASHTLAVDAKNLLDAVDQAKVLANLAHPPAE
How it was run: as §1

[5] = target: TAOK3 (UniProt Q9H2K8)
TAOK3, sequence (Q9H2K8 whole entry, looked up): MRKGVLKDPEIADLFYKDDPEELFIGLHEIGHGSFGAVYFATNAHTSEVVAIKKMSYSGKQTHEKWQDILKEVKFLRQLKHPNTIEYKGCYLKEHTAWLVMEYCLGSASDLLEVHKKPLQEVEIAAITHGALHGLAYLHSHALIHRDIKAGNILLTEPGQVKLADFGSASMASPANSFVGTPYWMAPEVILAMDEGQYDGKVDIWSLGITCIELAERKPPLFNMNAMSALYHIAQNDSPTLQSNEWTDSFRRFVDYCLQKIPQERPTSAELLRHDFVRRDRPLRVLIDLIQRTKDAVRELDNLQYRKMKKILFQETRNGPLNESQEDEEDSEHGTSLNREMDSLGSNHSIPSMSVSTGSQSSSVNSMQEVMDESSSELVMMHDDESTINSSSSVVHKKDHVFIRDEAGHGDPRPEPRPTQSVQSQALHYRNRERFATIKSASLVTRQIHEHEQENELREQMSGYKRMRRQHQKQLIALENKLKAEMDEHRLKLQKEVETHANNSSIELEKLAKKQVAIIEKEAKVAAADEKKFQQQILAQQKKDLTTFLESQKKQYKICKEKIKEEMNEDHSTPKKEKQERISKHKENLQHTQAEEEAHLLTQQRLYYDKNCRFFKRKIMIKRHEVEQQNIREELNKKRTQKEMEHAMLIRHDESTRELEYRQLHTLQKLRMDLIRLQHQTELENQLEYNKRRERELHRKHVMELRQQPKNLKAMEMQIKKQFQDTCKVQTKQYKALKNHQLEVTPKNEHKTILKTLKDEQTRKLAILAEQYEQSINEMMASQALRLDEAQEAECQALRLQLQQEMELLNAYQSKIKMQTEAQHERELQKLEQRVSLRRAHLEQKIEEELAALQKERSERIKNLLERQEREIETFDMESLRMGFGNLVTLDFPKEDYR
How it was run: as §1

[6] = target: T3, EPHB2 (UniProt P29323)
T3 sequence (whole entry): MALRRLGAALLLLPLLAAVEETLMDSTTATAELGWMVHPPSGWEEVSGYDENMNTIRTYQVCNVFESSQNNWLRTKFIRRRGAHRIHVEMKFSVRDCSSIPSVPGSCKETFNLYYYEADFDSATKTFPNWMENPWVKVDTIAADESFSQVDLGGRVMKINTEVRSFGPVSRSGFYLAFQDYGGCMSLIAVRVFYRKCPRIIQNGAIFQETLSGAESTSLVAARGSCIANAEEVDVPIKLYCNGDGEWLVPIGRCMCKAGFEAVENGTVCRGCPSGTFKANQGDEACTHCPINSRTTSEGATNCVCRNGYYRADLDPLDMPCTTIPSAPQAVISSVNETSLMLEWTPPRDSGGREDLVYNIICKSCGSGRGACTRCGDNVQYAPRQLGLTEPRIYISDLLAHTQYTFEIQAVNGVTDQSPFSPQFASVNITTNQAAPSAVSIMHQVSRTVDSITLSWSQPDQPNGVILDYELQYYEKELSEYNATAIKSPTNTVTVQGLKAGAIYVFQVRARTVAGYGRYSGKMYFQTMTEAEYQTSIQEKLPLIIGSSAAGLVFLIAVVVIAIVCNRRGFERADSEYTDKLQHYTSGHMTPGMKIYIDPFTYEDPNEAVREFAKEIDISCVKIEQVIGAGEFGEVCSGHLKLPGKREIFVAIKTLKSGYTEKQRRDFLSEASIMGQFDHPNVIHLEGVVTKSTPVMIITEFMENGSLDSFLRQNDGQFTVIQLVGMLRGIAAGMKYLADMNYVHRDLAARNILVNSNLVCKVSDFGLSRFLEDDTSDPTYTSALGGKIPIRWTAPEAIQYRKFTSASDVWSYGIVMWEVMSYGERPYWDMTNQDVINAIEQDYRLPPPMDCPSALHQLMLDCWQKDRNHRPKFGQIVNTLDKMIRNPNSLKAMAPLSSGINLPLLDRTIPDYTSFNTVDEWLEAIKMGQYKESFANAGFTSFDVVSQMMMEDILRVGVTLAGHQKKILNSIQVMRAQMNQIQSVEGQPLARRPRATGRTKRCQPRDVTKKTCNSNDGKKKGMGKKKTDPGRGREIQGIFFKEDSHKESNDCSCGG
How it was run: as §1

| Structure (SMILES) | pIC50 [1] | pIC50 ([2]; cell material: Jurkat cells) | pIC50 ([2]; cell material: Lysate mix) | pIC50 ([3]; cell material: Lysate mix) | pIC50 ([4]; cell material: Lysate mix) | pIC50 ([5]; cell material: Lysate mix) | pIC50 ([6]; cell material: Lysate mix) | pIC50 ([2]; cell material: Jurkat lysate) | pIC50 ([3]; cell material: Jurkat cells) | pIC50 ([3]; cell material: Jurkat lysate) | pIC50 ([4]; cell material: Jurkat cells) | pIC50 ([4]; cell material: Jurkat lysate) | pIC50 ([5]; cell material: Jurkat cells) | pIC50 ([5]; cell material: Jurkat lysate) | pIC50 ([6]; cell material: Jurkat cells) | pIC50 ([6]; cell material: Jurkat lysate) |
| --- | --- | --- | --- | --- | --- | --- | --- | --- | --- | --- | --- | --- | --- | --- | --- | --- |
| O=C(NCCNC(=O)c1cc(Nc2cc(C3CC3)[nH]n2)nc(N2CCN(Cc3ccc(S(=O)(=O)F)cc3)CC2)n1)OC1CC/C=C/CCC1 (stereo not given) | 5.44 | < 4.52 | < 4.52 | < 4.52 | < 4.52 | 5.55 | < 4.52 | < 4.52 | < 4.52 | < 4.52 | 4.98 | < 4.52 | 6.22 | 5.61 | < 4.52 | < 4.52 |
| Cc1cc(Nc2cc(C(=O)NCCNC(=O)OC3CC/C=C/CCC3)nc(N3CCN(Cc4ccc(S(=O)(=O)F)cc4)CC3)n2)n[nH]1 (stereo not given) | 4.8 |  | < 4.52 | < 4.52 | < 4.52 | 6.03 | < 4.52 |  |  |  |  |  |  |  |  |  |
| C#CCNC(=O)c1cc(Nc2cc(C3CC3)[nH]n2)nc(N2CCN(Cc3ccc(S(=O)(=O)F)cc3)CC2)n1 | 7.34 |  | < 4.52 | < 4.52 | < 4.52 | < 4.52 | < 4.52 | < 4.52 | < 4.52 | < 4.52 | 5.98 | < 4.52 | 5.56 | < 4.52 | < 4.52 | < 4.52 |

Second part, led by results:

| pIC50 [1] | pIC50 ([2]; cell material: Jurkat cells) | pIC50 ([2]; cell material: Lysate mix) | pIC50 ([3]; cell material: Lysate mix) | pIC50 ([4]; cell material: Lysate mix) | pIC50 ([5]; cell material: Lysate mix) | pIC50 ([6]; cell material: Lysate mix) | Structure (SMILES) | pIC50 ([2]; cell material: Jurkat lysate) | pIC50 ([3]; cell material: Jurkat cells) | pIC50 ([3]; cell material: Jurkat lysate) | pIC50 ([4]; cell material: Jurkat cells) | pIC50 ([4]; cell material: Jurkat lysate) | pIC50 ([5]; cell material: Jurkat cells) | pIC50 ([5]; cell material: Jurkat lysate) | pIC50 ([6]; cell material: Jurkat cells) | pIC50 ([6]; cell material: Jurkat lysate) |
| --- | --- | --- | --- | --- | --- | --- | --- | --- | --- | --- | --- | --- | --- | --- | --- | --- |
| 7.21 |  | < 4.52 | < 4.52 | < 4.52 | < 4.52 | < 4.52 | CCNC(=O)c1cc(Nc2cc(C3CC3)[nH]n2)nc(N2CCN(Cc3ccc(S(=O)(=O)F)cc3)CC2)n1 |  |  |  |  |  |  |  |  |  |
| 7.07 |  | < 4.52 | < 4.52 | < 4.52 | < 4.52 | < 4.52 | CCNC(=O)c1cc(Nc2cc(C)[nH]n2)nc(N2CCN(Cc3ccc(S(=O)(=O)F)cc3)CC2)n1 |  |  |  |  |  |  |  |  |  |
| 6.23 |  | < 4.52 | < 4.52 | < 4.52 | < 4.52 | < 4.52 | C#CCNC(=O)c1cc(Nc2cc(C)[nH]n2)nc(N2CCN(Cc3ccc(S(=O)(=O)F)cc3)CC2)n1 |  |  |  |  |  |  |  |  |  |
